Measurements reported in patent US20080176909A1, “Methods for prevention and treatment of arteriosclerosis, hypertension and restenosis” (DAIICHI SANKYO COMPANY, LIMITED, priority 2003, published 2008).

Tests used:
[1] = tested on: apolipoprotein E (ApoE) knock out mice; assay: Antihypertensive effects, systolic blood pressure on high fatty diet; format: in vivo; conditions: for Systolic blood pressures: 3 mg/kg of each agent oral for 24 weeks, measured 21 to 24 hours after administration in the 23rd week, mean±S.E.; for hypotensive effects: 3 mg/kg of each agent, Dunnett's multiple comparison test
Description: Male apolipoprotein E (ApoE) knock out mice aged 12 weeks were divided into 4 groups (15 mice per group) as following: control group (0.5% carboxymethylcellulose (CMC) solution administered group), olmesartan medoxomil (3 mg/kg) administered group, azelnidipine (3 mg/kg) administered group, and olmesartan medoxomil (3 mg/kg) plus azelnidipine (3 mg/kg) administered group. Either test substance or vehicle (0.5% CMC solution) was orally administered to animals for 24 successive weeks. A high fatty diet (containing 0.15% cholesterol and 15% unsalted butter) was given to all mice in all groups following the start of test agent administration (12 weeks of age). The systolic blood pressure of all mice was measured by a non-preheating type blood pressure monitor (BP MONITOR FOR RATS & MICE, Model MK-2000, Muromachi Kikai Co., Ltd.) at 21 to 24 hours after drug administration in the 23rd week. The results are shown in Table 3 (values in the table indicate mean±S.E.).

[2] = tested on: cultured rat vascular smooth muscle cells; assay: DNA synthesis ([3H]thymidine incorporation) following stimulation by angiotensin II; format: cell-based; conditions: for DNA synthesis of cultured rat vascular smooth muscle cells: low doses, alone or co-administered
Source text: (§1) (3) Olmesartan, an AT1 receptor blocker, was intraperitoneally injected into wild-type mice by an osmotic minipump, and the dose-dependency of olmesartan was investigated as described in (2). Oral administration of azelnidipine to the wild-type mice was started after cuff placement, and dose-dependency of azelnidipine was investigated as described in (2). (4) Both olmesartan and azelnidipine were simultaneously administered to wild-type mice, and the effects of co-administration of olmesartan and azelnidipine were compared with those of administration of either olmesartan or azelnidipine alone as described in (2). Effects of olmesartan and azelnidipine were investigated at effective doses of either olmesartan or azelnidipine alone and at insufficient doses to elicit significant effects by either olmesartan or azelnidipine alone, so as to determine synergistic effects of these two agents. (5) By using cultured rat vascular smooth muscle cells, the effects of co-treatment of olmesartan and azelnidipine on facilitation of DNA synthesis following stimulation by angiotensin II (determined by incorporation of [^3H]thymidine) were investigated.

[3] = tested on: cuff-induced vascular damage model of wild-type mice (femoral artery); assay: Cuff-induced vascular injury model: DNA synthesis (BrdU index) and neointima formation; format: in vivo; conditions: for effects on blood pressure: azelnidipine 0.1 to 1.0 mg/kg/day, olmesartan 0.5 to 3.0 mg/kg/day
Description: C57BL/6 mice aged 10 weeks were used. In a part of this study, AT1a receptor gene knock out (AT1aKO) mice were also used. Inflammatory vascular damage was induced in mice by loosely placing a polyethylene tube which was cut longitudinally to open the tube, around the femoral artery of mice. In the damaged artery, the following observations were determined. The usefulness of this model of vascular damage to analyze vascular remodeling has been previously reported (Physiol. Genomics., 2, pp. 13-30, 2000; Circulation, 104, pp. 2716-2721, 2001; Circulation, 106, pp. 847-853, 2002).
A paraffin-embedded section of the damaged artery was prepared 14 days after cuff placement, Elastica van Gieson staining was carried out, and the cross-sectional area of the neointima and tunica media of the blood vessels was determined by image analysis software. For quantification of DNA synthesis, bromodeoxyuridine (BrdU) was injected into the mice 7 days after cuff placement and BrdU index calculated from incorporation into the nuclei of the cells was calculated.
as §1

[4] = low doses: 0.1 mg/kg/day azelnidipine, 0.5 mg/kg/day olmesartan, alone or at the same time

## CC1=C(C(=O)OC(C)C)C(c2cccc([N+](=O)[O-])c2)C(C(=O)OC2CN(C(c3ccccc3)c3ccccc3)C2)=C(N)N1 (racemic) [Azelnidipine, (±)-2-amino-1,4-dihydro-6-methyl-4-(3-nitrophenyl)-3,5-pyridine-dicarboxylate-3-(1-diphenylmethylazetidin-3-yl)ester 5-isopropylester]
[1]
  Systolic blood pressures: 127 ± 4 mmHg
  hypotensive effects: did not elicit any significant effects
[2]; concentration dependence, [3H]thymidine incorporation
  facilitation of DNA synthesis following stimulation by angiotensin II: suppressed by administration of azelnidipine in a concentration-dependent manner
[2]
  DNA synthesis of cultured rat vascular smooth muscle cells: insufficient to elicit any effects alone
[3]
  effects on blood pressure: without any effects on blood pressure
[3]; dose range: azelnidipine 0.1 to 1.0 mg/kg/day oral, olmesartan 0.5 to 3.0 mg/kg/day intraperitoneal osmotic minipump, 7 days after cuff placement
  increase in DNA synthesis of vascular smooth muscle cells (BrdU index): inhibited by azelnidipine in a dose-dependent manner
[3]; dose range: azelnidipine 0.1 to 1.0 mg/kg/day oral, olmesartan 0.5 to 3.0 mg/kg/day intraperitoneal osmotic minipump, 14 days after cuff placement
  potentiation of neointima formation in the blood vessels: inhibited by azelnidipine in a dose-dependent manner
[3]; [4]
  increase in DNA synthesis of vascular smooth muscle cells (BrdU index): did not elicit any significant effects
  potentiation of neointima formation in the blood vessels: did not elicit any significant effects

## CCCc1nc(C(C)(C)O)c(C(=O)OCc2oc(=O)oc2C)n1Cc1ccc(-c2ccccc2-c2nnn[nH]2)cc1 [Olmesartan medoxomil, (5-methyl-2-oxo-1,3-dioxolen-4-yl)methyl 4-(1-hydroxy-1-methylethyl)-2-propyl-1-[[2′-(1H-tetrazol-5-yl)biphenyl-4-yl]methyl]imidazol-5-carboxylate]
[1]
  Systolic blood pressures: 121 ± 4 mmHg
  hypotensive effects: did not elicit any significant effects
[2]
  DNA synthesis of cultured rat vascular smooth muscle cells: insufficient to elicit any effects alone
[3]
  effects on blood pressure: without any effects on blood pressure
[3]; [4]
  increase in DNA synthesis of vascular smooth muscle cells (BrdU index): did not elicit any significant effects
  potentiation of neointima formation in the blood vessels: did not elicit any significant effects
